Values of other authors as cited in EP3616687A2, “PREPARATION FOR THE TREATMENT AND/OR PROPHYLAXIS OF INFLAMMATORY INFECTIOUS DISEASES” (Lovtsov, Valentin Vyacheslavovich, priority 2017, dated 2018).

Conditions: clinical microbiological studies

SMILES: [H]/N=C(\N/C(=N/[H])NCCCCCCNC(=N)NC(=N)Nc1ccc(Cl)cc1)Nc1ccc(Cl)cc1 [Chlorhexidine]
- antibacterial activity, fold higher compared to Miramistine: 8 fold
